Measured values as given in patent publication US7713971B2, “1,2,4-triazine derivatives, preparation and use thereof in human therapy” (Pierre Fabre Medicament, priority 2005, dated 2010).
pEC50: −log10 of the molar value. Read-outs that look alike come from different tables or passages of the source.

Assays:
[1] = biological target: T1, human PPARγ (Homo sapiens, UniProt P37231); experiment: Reporter gene transactivation, hPPAR-GAL4 gamma; format: cell-based; settings: transfected Cos-7 cells, Gal-4 luciferase reporter, 24 hours treatment
T1 construct: expressed in transfected cells; host or cells: Cos-7 cells (ATCC, CRL-1651)
T1 sequence (P37231 238-503 limits assumed): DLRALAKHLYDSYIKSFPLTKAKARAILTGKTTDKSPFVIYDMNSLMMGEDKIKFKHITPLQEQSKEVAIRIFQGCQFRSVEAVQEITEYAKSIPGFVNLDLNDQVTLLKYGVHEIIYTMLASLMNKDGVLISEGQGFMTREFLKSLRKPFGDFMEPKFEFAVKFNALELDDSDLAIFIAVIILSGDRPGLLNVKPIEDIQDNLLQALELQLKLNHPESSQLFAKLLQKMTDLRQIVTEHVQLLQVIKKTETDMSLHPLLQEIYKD

[2] = biological target: T2, human PPARα (Homo sapiens, UniProt Q07869); experiment: Reporter gene transactivation, hPPAR-GAL4 alpha; format: cell-based; settings: transfected Cos-7 cells, Gal-4 luciferase reporter, 24 hours treatment
T2 construct: expressed in transfected cells; host or cells: Cos-7 cells (ATCC, CRL-1651)
T2 sequence (Q07869 239-466 limits assumed): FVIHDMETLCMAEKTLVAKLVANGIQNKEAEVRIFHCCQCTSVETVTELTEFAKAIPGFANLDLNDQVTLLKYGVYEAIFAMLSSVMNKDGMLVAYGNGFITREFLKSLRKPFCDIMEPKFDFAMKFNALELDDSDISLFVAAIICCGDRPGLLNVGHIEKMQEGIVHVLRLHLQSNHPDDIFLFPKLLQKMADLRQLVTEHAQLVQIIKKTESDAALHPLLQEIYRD

[3] = test system: insulin-resistant male rat (Ico: ZUCKER-fa/fa); experiment: Normalization of metabolic parameters (cholesterol, plasma triglycerides) in insulin-resistant rat; format: in vivo; settings: oral route, once per day for four days, Zucker fa/fa rat unfed 16-18 hours; for change in vivo at 2.5 mg/kg / change in vivo at 10 mg/kg: 96 h
Protocol: Normalization of metabolic parameters (cholesterol, plasma triglycerides) in an insulin-resistant male rat (Ico: ZUCKER-fa/fa), unfed for 16-18 hours, after treatment by oral route, once per day for four days, with the compounds to be evaluated or their administration vehicle.
These metabolic parameters are measured by spectrophotometry at the beginning and the end of each animal's treatment.

[4] = at 2.5 mg/kg, read-out: Plasma cholesterol
[5] = at 2.5 mg/kg, read-out: Plasma triglycerides
[6] = at 10 mg/kg, read-out: Plasma cholesterol
[7] = at 10 mg/kg, read-out: Plasma triglycerides

pEC50 [1]	pEC50 [2]	SMILES	change in vivo at 2.5 mg/kg [3, 4] [%]	change in vivo at 2.5 mg/kg [3, 5] [%]	change in vivo at 10 mg/kg [3, 6] [%]	change in vivo at 10 mg/kg [3, 7] [%]	Plasma triglycerides ([3]; at 10 mg/kg)	Plasma triglycerides ([3]; at 2.5 mg/kg)	Plasma cholesterol ([3]; at 10 mg/kg)
~5.00	6.52 to 7.00	CCCCCCCn1c(=O)c(NCCc2ccc(SC(C)(C)C(=O)O)cc2)nn(CCCC(F)(F)F)c1=O [Example 123, 2-(4-{2-[4-Heptyl-3,5-dioxo-2-(4,4,4-trifluoro-butyl)-2,3,4,5-tetrahydro-[1,2,4]triazin-6-ylamino]-ethyl}-phenylsulfanyl)-2-methyl-propionic Acid]	-8	-6	-14	-20			
~6.52	~6.52	CCCCCCCn1c(=O)c(NCCCOc2ccc(OC(C)(C)C(=O)OCC)cc2)nn(C)c1=O [Example 47, Ethyl 2-{4-[3-(4-heptyl-4-methyl-3,5-dioxo-2,3,4,5-tetrahydro-[1,2,4]triazin-6-ylamino)-propoxy]-phenoxy}-2-methyl-propionate]			-25	-45			
5.52 to 6.00	6.00 to 6.52	CCCCCCCn1nc(NCCc2ccc(SC(C)(C)C(=O)O)cc2)c(=O)n(C)c1=O [Example 120, 2-{4-[2-(2-Heptyl-4-methyl-3,5-dioxo-2,3,4,5-tetrahydro-[1,2,4]triazin-6-ylamino)-ethyl]-phenylsulfanyl}-2-methyl-propionic Acid]	-32	-27	-33	-73			
5.52 to 6.00	7.00 to 7.52	CCCCCCCn1nc(NCCc2ccc(SC(C)(C)C(=O)O)cc2)c(=O)n(CCCC)c1=O [Example 121, 2-{4-[2-(4-Butyl-2-heptyl-3,5-dioxo-2,3,4,5-tetrahydro-[1,2,4]triazin-6-ylamino)-ethyl]-phenylsulfanyl}-2-methyl-propionic Acid]	-7	-24					
5.00 to 5.52	6.52 to 7.00	CCCCCCCn1c(=O)c(NCCCc2cccc(OC(C)(C)C(=O)OCC)c2)nn(CCCC(F)(F)F)c1=O [Example 68, Ethyl 2-(3-{3-[4-heptyl-3,5-dioxo-2-(4,4,4-trifluoro-butyl)-2,3,4,5-tetrahydro-[1,2,4]triazin-6-ylamino]-propyl}-phenoxy)-2-methyl-propionate]			-21		active at 10 mg/kg		
5.00 to 5.52	5.00 to 5.52	CCCCCCCn1nc(NCCCCc2cccc(OC(C)(C)C(=O)OCC)c2)c(=O)n(C)c1=O [Example 75, Ethyl 2-{3-[4-(2-heptyl-4-methyl-3,5-dioxo-2,3,4,5-tetrahydro-[1,2,4]triazin-6-ylamino)-butyl]-phenoxy}-2-methyl-propionate]	-19		-13		active at 10		
5.00 to 5.52	5.00 to 5.52	CCCCCCCn1nc(NCCCc2cccc(OC(C)(C)C(=O)OCC)c2)c(=O)n(Cc2ccccc2)c1=O [Example 72, Ethyl 2-{3-[3-(4-Benzyl-2-heptyl-3,5-dioxo-2,3,4,5-tetrahydro-[1,2,4]triazin-6-ylamino)-propyl]-phenoxy}-2-methyl-propionate]			-21		inactive at 10		
~5.52	5.52 to 6.00	CCCCCCCn1nc(NCCCOc2ccc(OC(C)(C)C(=O)OCC)cc2)c(=O)n(C)c1=O [Example 45, Ethyl 2-{4-[3-(2-heptyl-4-methyl-3,5-dioxo-2,3,4,5-tetrahydro-[1,2,4]triazin-6-ylamino)-propoxy]-phenoxy}-2-methyl-propionate]			-16		inactive at 10		

Continued, molecule first:

SMILES	pEC50 [1]	pEC50 [2]	change in vivo at 2.5 mg/kg [3, 4] [%]	change in vivo at 2.5 mg/kg [3, 5] [%]	change in vivo at 10 mg/kg [3, 6] [%]	change in vivo at 10 mg/kg [3, 7] [%]	Plasma triglycerides ([3]; at 10 mg/kg)	Plasma triglycerides ([3]; at 2.5 mg/kg)	Plasma cholesterol ([3]; at 10 mg/kg)
Cn1nc(NCCCCc2cccc(OC(C)(C)C(=O)O)c2)c(=O)n(CCCC(F)(F)F)c1=O [Example 79, 2-Methyl-2-(3-{4-[2-methyl-3,5-dioxo-4-(4,4,4-trifluoro-butyl)-2,3,4,5-tetrahydro-[1,2,4]triazin-6-ylamino]-butyl}-phenoxy)-propionic Acid]	5.00 to 5.52	~7.52	-32	-55					
CCOC(=O)C(C)(C)Sc1cccc(CCCCNc2nn(C)c(=O)n(CCCC(F)(F)F)c2=O)c1 [Example 95]	< 5.00	5.52 to 6.00	-18		-40		inactive at .10		
CCCCCCCn1nc(NCCCCc2cccc(OC(C)(C)C(=O)OCC)c2)c(=O)n(CCCC(F)(F)F)c1=O [Example 82, Ethyl 2-(3-{4-[2-heptyl-3,5-dioxo-4-(4,4,4-trifluoro-butyl)-2,3,4,5-tetrahydro-[1,2,4]triazin-6-ylamino]-butyl}-phenoxy)-2-methyl-propionate]	6.52 to 7.00	~8.00			-13		active at 10 mg/kg		
CCOC(=O)C(C)(C)Oc1cccc(CCCNc2nn(C)c(=O)n(CCCC(F)(F)F)c2=O)c1 [Example 65, Ethyl 2-methyl-2-(3-{3-[2-methyl-3,5-dioxo-4-(4,4,4-trifluoro-butyl)-2,3,4,5-tetrahydro-[1,2,4]triazin-6-ylamino]-propyl}-phenoxy)-propionate]	< 5.00	6.52 to 7.00	-13		-23	-13		inactive at 2.5	
CCOC(=O)C(C)(C)Oc1cccc(CCCCNc2nn(CCC#N)c(=O)n(CCCC(F)(F)F)c2=O)c1 [Example 81, Ethyl 2-(3-{4-[2-(2-cyano-ethyl)-3,5-dioxo-4-(4,4,4-trifluoro-butyl)-2,3,4,5-tetrahydro-[1,2,4]triazin-6-ylamino]-butyl}-phenoxy)-2-methyl-propionate]	< 5.00	6.00 to 6.52			-12	-17			
CCCCn1c(=O)c(OCCCCCc2cccc(OC(C)(C)C(=O)OCC)c2)nn(C)c1=O [Example 11, Ethyl 2-{3-[5-(4-butyl-2-methyl-3,5-dioxo-2,3,4,5-tetrahydro-[1,2,4]triazin-6-yloxy)-pentyl]-phenoxy}-2-methyl-propionate]	5.52 to 6.00	6.00 to 6.52	-25		-25	-37		inactive at 2.5	
CCCCCCCn1nc(OCCCCCc2cccc(OC(C)(C)C(=O)OCC)c2)c(=O)n(CCCC)c1=O [Example 15, Ethyl 2-{3-[5-(4-butyl-2-heptyl-3,5-dioxo-2,3,4,5-tetrahydro-[1,2,4]triazin-6-yloxy)-pentyl]-phenoxy}-2-methyl-propionate]	6.52 to 7.00	8.52 to 9.00	-4	-22	-8	-63			
CCCCCCCn1c(=O)c(OCCCCCc2cccc(OC(C)(C)C(=O)OCC)c2)nn(C)c1=O [Example 17, Ethyl 2-{3-[5-(4-heptyl-2-methyl-3,5-dioxo-2,3,4,5-tetrahydro-[1,2,4]triazin-6-yloxy)-pentyl]-phenoxy}-2-methyl-propionate]	~6.52	6.00 to 6.52				-37			active at 10
CCCCCCCn1c(=O)c(NCCCCc2cccc(OC(C)(C)C(=O)OCC)c2)nn(CCCC(F)(F)F)c1=O [Example 85, Ethyl 2-(3-{4-[4-heptyl-3,5-dioxo-2-(4,4,4-trifluoro-butyl)-2,3,4,5-tetrahydro-[1,2,4]triazin-6-ylamino]-butyl}-phenoxy)-2-methyl-propionate]	5.52 to 6.00	~7.52			-21		active at 10 mg/kg		
CCOC(=O)C(C)(C)Oc1cccc(CCCCCOc2nn(C)c(=O)n(CCCC(F)(F)F)c2=O)c1 [Example 16, Ethyl 2-methyl-2-(3-{5-[2-methyl-3,5-dioxo-4-(4,4,4-trifluoro-butyl)-2,3,4,5-tetrahydro-[1,2,4]triazin-6-yloxy]-pentyl}-phenoxy)-propionate]	5.00 to 5.52	~7.00	-14		-25	-15		inactive at 2.5	
